The series is described as follows: in vitro. The following applies: human, hela cells, % viability.

`Clc1ccc(Cl)c(-c2nc3ccccc3o2)n1` [CBK095353]: the viability (usually a read-out of living cells in per cent, often relative to untreated cells) at 28.5 h, 10 µM came to 91.6%.
Still for that read-out and setting: the value for `CCCCC(=O)N(C)c1c(C)nc2ccc(C(=O)Nc3ccc(C(N)=O)cc3)cn12` [CBK147066] was 94.5%; that for `Cc1ccc(C(=O)COC(=O)c2cccc(C)c2O)cc1[N+](=O)[O-]` [CBK264081] was 90.5%; that for `Cc1ccc(S(=O)(=O)NC(C)C(=O)NCc2ccco2)cc1` (centres unmarked) [CBK266514] was 109%.
Turning to `COC(=O)NC(NC(=O)OC)C(=O)c1ccccc1` [CBK020208], the viability at 28.5 h, 10 µM was 100%.
On the same count and under the same terms, the value for `CC(=O)N1CC2(CCN(C(=O)C(C)(C)C)CC2)Nc2ccccc21` [CBK284448] was 102%.
Still for that read-out and setting: to `CN(C)S(=O)(=O)c1ccc(C(=O)Nc2ccc(N3CCOCC3)c(Cl)c2)cc1` [CBK267383] belongs 87.7%; to `O=C(Nc1ccccc1C(=O)O)c1cc(S(=O)(=O)Nc2cccc(F)c2)ccc1Cl` [CBK263242], 84.7%.
On the same count and under the same terms, to `CCCS(=O)(=O)N1CCCC(Cc2ccccc2C)(C(=O)OCC)C1` (centres unmarked) [CBK307502] belongs 84.9%; to `Cc1cccc(C2(O)CCN(CC(O)c3ccccc3)CC2)c1` (centres unmarked) [CBK286325], 106%.
In the case of `O=C1CCC[C@]2(CN(C(=O)C3CC3)C[C@H]2c2ccccc2F)N1` [CBK283357], the viability at 28.5 h, 10 µM was determined as 106%.
On the same count and under the same terms, the value for `CCCCNC(=O)Nc1ncc(-c2ccc(C#N)cc2)nc1-c1ccc(C(=O)N2CCOCC2)cc1` [CBK105766] was 91.1%; that for `O=C(O)c1cccc2c1C(=O)N(Cc1ccncc1)C2` [CBK291146] was 80.6%; that for `CC(=O)Nc1cccc(-n2nnnc2SCc2cnn(C)c2)c1` [CBK305471] was 101%.
Same read-out and setting: to `O=C(O)c1ccc(-n2ncc3ccccc3c2=O)cc1` [CBK288229] belongs 111%; to `Cn1ccnc1C(NC(=O)N1CCOCC1)c1ccc(F)c(F)c1` (centres unmarked) [CBK283781], 87.4%.
Still for that read-out and setting: to `O=C(O)Cn1cc(C(=O)COc2ccccc2)c2ccccc21` [CBK286708] belongs 85.4%.
As for `COc1cc(C(=O)CCN2CCCCC2)cc(OC)c1OC` [CBK015639C], the viability at 28.5 h, 10 µM worked out at 107%.
The same measure, in the same setting: the value for `CCOC(=O)CN1C(=O)S/C(=C/c2cc(C)n(-c3cc(C)ccn3)c2C)C1=O` [CBK264731] was 95.2%.
Still for that read-out and setting: to `CN1CCN(C(=O)c2cc(Br)cnc2NCCOc2ccccc2)CC1` [CBK076231] belongs 92%; to `CCOc1nnc(CN(CCC(N)=O)c2ccc(F)cc2)s1` [CBK305536], 110%.
In the case of `Cc1ccc(Cn2nc(C(=O)Nc3ccc4c(c3)OCO4)c3ccccc32)cc1` [CBK047847], the viability at 28.5 h, 10 µM (bulk resorufin, single well) is 87%.
`CCCCOc1ccc(C(=O)N(C)c2cnn(C)c2)c(O)c1` [CBK306167]: the viability at 28.5 h, 10 µM worked out at 89.5%.
Same read-out and setting: to `CC(=O)NC(CC(=O)N1CCc2sccc2C1C)c1ccc(C)cc1` (centres unmarked) [CBK305378] belongs 89.2%; to `CC1CCC(N2CCN(Cc3ccccn3)CC2)CC1` (centres unmarked) [CBK263473], 90.6%; to `O=C1NC/C=C/CC2(CCN(Cc3ccc(Cl)cn3)CC2)C(=O)NCCOc2ccccc21` [CBK292008], 103%.
Same read-out and setting: the value for `COc1cccc(CN2CCCC3(C2)NCCc2c3[nH]c3cc(F)ccc23)c1` (centres unmarked) [CBK039786] was 87.5%.
Same read-out and setting: to `CC(C)N(C(=O)CN1C(=O)N2CCN=C2c2ccccc21)C(C)C` [CBK284005] belongs 87%; to `CCOc1cc(C(=S)N2CCCCC2)ccc1OC(=O)c1ccccc1Cl` [CBK019660], 98.9%.
As to `CC(C)[C@H]1CN(Cc2ccco2)CCN1C(=O)c1cscn1` [CBK285490], the viability at 28.5 h, 10 µM was determined as 99.6%.
Still for that read-out and setting: to `Cn1cncc1C(=O)N1CCc2ccccc21` [CBK200412] belongs 86.7%; to `CC(C)Nc1nccnc1Sc1ccc(N)cc1` [CBK089485], 77.1%.

The record behind these values is article PMC12040169 (PLOS Biology, 2025).
